From ChEMBL document CHEMBL1821607, “N-Arylalkyl-2-azaadamantanes as cage-expanded polycarbocyclic sigma (σ) receptor ligands” (Bioorg Med Chem Lett, 2011)

Columns and labels:
[1] = target: 5-hydroxytryptamine receptor 1E (Homo sapiens) (UniProt P28566); assay: Inhibition of 5-HT1E receptor at 10 uM by NIMH PDSP
[2] = target: Sigma non-opioid intracellular receptor 1 (Cavia porcellus, UniProt Q60492); assay: Displacement of [3H](+)-pentazocine from sigma 1 receptor in guinea pig brain homogenates after 90 mins by scintillation counting; format: tissue-based
Chain of Sigma non-opioid intracellular receptor 1 (Q60492 whole entry): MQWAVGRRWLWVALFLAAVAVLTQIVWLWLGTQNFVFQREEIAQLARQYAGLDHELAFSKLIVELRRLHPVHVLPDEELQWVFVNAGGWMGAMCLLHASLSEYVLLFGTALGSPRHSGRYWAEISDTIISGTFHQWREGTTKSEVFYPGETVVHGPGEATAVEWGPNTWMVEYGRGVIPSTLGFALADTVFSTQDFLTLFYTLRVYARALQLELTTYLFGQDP

[3] = target: T1, Alpha-1D adrenergic receptor (Homo sapiens) (UniProt P25100); assay: Inhibition of alpha-1D adrenergic receptor at 10 uM by NIMH PDSP
T1 sequence (whole entry): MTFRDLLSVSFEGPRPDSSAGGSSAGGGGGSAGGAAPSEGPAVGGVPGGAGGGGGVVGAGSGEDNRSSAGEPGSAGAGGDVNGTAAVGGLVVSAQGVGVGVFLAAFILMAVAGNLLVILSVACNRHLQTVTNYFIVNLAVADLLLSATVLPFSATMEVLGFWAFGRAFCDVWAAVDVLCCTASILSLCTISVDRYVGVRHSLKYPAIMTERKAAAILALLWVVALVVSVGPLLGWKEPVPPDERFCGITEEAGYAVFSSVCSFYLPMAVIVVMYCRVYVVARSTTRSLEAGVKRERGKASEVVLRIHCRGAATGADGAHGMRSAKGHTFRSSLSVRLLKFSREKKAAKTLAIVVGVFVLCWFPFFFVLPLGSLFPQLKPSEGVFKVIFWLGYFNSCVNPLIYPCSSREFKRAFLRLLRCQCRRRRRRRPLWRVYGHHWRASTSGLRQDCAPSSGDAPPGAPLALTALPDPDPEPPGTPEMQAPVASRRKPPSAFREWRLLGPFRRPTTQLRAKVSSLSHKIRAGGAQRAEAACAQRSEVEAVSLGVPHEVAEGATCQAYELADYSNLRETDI

[4] = target: Histamine H4 receptor (Homo sapiens) (UniProt Q9H3N8); assay: Inhibition of H4 receptor at 10 uM by NIMH PDSP
Chain of Histamine H4 receptor (Homo sapiens) (Q9H3N8 whole entry): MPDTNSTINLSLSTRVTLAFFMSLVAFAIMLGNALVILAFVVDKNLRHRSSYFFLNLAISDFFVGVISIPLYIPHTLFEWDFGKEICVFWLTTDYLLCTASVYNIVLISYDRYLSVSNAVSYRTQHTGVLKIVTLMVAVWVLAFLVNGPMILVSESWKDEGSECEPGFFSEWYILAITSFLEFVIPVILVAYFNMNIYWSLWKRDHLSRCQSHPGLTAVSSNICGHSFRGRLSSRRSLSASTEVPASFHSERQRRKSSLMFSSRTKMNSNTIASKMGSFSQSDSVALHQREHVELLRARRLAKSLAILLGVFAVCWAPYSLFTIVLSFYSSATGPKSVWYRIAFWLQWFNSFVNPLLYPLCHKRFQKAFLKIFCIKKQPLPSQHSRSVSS

[5] = Displacement of [3H]DTG from sigma 2 receptor in rat liver homogenates in presence of sigma-1 receptor blocker (+)-pentazocine after 120 mins by liquid scintillation counting; format: tissue-based
[6] = target: Beta-3 adrenergic receptor (Homo sapiens) (UniProt P13945); assay: Inhibition of beta-3 adrenergic receptor at 10 uM by NIMH PDSP
Chain of Beta-3 adrenergic receptor (Homo sapiens) (P13945 whole entry, looked up): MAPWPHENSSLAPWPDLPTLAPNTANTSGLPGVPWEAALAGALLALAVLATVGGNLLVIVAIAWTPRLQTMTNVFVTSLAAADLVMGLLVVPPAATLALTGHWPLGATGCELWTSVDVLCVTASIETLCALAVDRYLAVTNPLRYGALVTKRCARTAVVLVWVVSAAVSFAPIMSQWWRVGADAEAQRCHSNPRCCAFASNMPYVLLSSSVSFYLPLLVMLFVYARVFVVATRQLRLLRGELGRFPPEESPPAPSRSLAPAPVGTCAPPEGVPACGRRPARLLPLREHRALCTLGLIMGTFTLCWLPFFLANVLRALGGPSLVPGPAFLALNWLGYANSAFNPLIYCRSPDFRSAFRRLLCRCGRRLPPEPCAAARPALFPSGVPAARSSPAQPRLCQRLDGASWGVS

[7] = target: D(3) dopamine receptor (Homo sapiens) (UniProt P35462); assay: Inhibition of D3 dopamine receptor at 10 uM by NIMH PDSP
Chain of D(3) dopamine receptor (Homo sapiens) (P35462 whole entry): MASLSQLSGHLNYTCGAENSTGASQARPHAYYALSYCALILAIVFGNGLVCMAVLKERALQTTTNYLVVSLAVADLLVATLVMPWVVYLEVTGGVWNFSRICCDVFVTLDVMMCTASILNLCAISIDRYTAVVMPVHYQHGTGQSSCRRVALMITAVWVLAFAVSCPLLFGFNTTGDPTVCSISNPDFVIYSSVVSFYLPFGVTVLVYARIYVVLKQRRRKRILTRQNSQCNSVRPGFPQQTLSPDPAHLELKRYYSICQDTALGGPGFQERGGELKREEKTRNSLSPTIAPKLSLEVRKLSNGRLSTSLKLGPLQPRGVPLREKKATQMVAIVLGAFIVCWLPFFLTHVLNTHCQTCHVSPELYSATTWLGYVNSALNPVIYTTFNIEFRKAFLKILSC

[8] = target: 5-hydroxytryptamine receptor 5A (Homo sapiens) (UniProt P47898); assay: Inhibition of 5-HT5A receptor at 10 uM by NIMH PDSP
Chain of 5-hydroxytryptamine receptor 5A (Homo sapiens) (P47898 whole entry): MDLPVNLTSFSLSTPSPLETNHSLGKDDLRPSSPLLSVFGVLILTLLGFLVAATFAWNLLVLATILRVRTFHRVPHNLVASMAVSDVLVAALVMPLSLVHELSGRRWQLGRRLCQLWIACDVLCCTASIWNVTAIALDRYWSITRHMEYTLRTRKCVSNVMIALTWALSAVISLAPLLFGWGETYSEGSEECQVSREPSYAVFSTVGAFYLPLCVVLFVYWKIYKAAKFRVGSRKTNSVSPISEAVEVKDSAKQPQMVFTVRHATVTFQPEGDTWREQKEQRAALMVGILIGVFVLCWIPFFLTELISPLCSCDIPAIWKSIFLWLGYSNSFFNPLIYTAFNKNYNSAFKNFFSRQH

[9] = target: Muscarinic acetylcholine receptor M3 (Homo sapiens) (UniProt P20309); assay: Inhibition of M3 muscarinic receptor at 10 uM by NIMH PDSP
Chain of Muscarinic acetylcholine receptor M3 (Homo sapiens) (P20309 whole entry, looked up): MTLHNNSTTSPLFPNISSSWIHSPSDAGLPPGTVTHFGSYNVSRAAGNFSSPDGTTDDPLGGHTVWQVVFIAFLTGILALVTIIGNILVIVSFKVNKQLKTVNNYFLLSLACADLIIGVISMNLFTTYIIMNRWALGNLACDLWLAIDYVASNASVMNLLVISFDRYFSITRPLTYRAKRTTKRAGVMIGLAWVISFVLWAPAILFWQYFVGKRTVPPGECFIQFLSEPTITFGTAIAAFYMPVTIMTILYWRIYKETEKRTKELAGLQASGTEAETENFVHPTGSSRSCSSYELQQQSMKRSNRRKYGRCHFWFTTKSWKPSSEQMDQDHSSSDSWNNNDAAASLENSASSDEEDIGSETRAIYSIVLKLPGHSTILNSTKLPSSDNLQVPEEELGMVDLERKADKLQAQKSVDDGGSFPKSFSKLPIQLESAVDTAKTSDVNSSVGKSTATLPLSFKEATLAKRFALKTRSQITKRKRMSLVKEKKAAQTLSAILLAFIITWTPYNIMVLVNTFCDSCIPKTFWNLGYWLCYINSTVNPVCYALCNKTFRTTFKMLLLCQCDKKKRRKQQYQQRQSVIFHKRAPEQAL

[10] = target: T2, Alpha-1A adrenergic receptor (Homo sapiens) (UniProt P35348); assay: Inhibition of alpha-1A adrenergic receptor at 10 uM by NIMH PDSP
T2 sequence (whole entry): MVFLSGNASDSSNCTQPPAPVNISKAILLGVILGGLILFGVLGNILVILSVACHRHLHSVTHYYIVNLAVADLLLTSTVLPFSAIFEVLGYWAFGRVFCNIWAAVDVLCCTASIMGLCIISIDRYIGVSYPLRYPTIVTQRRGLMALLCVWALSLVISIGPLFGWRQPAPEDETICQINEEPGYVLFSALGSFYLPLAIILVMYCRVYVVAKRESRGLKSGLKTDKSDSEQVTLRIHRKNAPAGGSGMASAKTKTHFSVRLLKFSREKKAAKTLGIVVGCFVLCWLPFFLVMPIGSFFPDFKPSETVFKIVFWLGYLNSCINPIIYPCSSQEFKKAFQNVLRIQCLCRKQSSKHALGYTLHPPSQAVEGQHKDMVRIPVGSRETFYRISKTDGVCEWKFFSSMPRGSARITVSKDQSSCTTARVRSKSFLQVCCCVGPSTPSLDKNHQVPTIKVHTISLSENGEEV

[11] = target: T3, 5-hydroxytryptamine receptor 2C (Homo sapiens) (UniProt P28335); assay: Inhibition of 5-HT2C receptor at 10 uM by NIMH PDSP
T3 sequence (whole entry): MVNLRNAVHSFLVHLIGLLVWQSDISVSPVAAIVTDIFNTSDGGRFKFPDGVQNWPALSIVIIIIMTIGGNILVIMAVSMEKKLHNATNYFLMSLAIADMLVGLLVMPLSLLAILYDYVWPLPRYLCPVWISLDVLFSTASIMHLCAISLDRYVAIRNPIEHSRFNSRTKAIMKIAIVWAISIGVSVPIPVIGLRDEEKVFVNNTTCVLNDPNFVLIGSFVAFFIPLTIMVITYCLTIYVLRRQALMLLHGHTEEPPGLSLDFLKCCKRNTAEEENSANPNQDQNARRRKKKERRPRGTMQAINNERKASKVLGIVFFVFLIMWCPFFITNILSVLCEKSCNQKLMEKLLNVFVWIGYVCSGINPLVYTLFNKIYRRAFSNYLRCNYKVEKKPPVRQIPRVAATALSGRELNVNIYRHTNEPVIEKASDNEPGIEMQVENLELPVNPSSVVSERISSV

Rattus norvegicus = species: Rattus norvegicus; assay: Inhibition of BZP receptor in rat brain at 10 uM by NIMH PDSP; format: tissue-based
[12] = target: 5-hydroxytryptamine receptor 2A (Homo sapiens) (UniProt P28223); assay: Inhibition of 5-HT2A receptor at 10 uM by NIMH PDSP
Chain of 5-hydroxytryptamine receptor 2A (Homo sapiens) (P28223 whole entry): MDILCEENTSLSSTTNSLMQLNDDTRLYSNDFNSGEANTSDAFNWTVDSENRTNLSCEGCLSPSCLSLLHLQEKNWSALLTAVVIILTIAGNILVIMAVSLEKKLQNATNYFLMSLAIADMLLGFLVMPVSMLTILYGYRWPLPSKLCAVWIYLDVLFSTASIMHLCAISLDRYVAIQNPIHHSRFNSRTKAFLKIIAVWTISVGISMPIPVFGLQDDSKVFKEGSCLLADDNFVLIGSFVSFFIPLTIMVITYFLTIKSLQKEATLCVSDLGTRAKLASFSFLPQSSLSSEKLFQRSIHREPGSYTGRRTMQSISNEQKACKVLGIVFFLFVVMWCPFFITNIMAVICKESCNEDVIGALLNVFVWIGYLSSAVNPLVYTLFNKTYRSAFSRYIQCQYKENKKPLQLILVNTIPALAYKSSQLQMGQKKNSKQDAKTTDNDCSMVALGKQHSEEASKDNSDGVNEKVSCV

[13] = target: T4, Alpha-2A adrenergic receptor (Homo sapiens) (UniProt P08913); assay: Inhibition of alpha-2A adrenergic receptor at 10 uM by NIMH PDSP
T4 sequence (whole entry): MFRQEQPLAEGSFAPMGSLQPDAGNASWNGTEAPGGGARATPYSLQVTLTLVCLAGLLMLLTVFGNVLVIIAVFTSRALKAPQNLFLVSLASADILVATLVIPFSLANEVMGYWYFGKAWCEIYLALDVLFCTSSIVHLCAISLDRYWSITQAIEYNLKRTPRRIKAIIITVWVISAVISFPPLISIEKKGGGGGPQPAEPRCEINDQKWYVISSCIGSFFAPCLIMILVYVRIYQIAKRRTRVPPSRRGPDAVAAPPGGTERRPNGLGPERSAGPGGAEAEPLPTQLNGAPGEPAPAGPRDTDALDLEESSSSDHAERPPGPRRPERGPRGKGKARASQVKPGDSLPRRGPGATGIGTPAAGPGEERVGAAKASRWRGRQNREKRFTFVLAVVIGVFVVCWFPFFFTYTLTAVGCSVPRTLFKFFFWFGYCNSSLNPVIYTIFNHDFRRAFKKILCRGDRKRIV

Chain of 5-hydroxytryptamine receptor 1E (Homo sapiens) (P28566 whole entry): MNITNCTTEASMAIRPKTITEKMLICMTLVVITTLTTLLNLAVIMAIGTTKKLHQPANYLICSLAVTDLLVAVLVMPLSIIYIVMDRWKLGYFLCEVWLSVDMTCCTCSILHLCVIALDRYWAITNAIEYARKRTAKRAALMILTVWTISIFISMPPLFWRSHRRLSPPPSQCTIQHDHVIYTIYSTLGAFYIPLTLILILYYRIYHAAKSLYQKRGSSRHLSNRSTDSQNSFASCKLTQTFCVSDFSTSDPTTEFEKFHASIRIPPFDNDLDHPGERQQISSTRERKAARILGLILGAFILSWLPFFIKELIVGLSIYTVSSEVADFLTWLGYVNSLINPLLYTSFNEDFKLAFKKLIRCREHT

Structure (SMILES)	inhibition [1] [%]	Ki [2] [nM]	inhibition [3] [%]	inhibition [4] [%]	Ki [5] [nM]	inhibition [6] [%]	inhibition [7] [%]	inhibition [8] [%]	inhibition [9] [%]	inhibition [10] [%]	inhibition [11] [%]	inhibition (Rattus norvegicus) [%]	inhibition [12] [%]	inhibition [13] [%]
OC12CC3CC(CC(C3)N1Cc1ccccc1)C2 (racemic)	< 50	1450	< 50	< 50	1020	< 50	< 50	< 50	< 50	< 50	< 50	< 50	< 50	–
c1ccc(CN2C3CC4CC(C3)CC2C4)cc1	< 50	29	< 50	< 50	95	< 50	< 50	< 50	< 50	< 50	< 50	< 50	< 50	< 50
Fc1cccc(CN2C3CC4CC(C3)CC2C4)c1	< 50	22	< 50	< 50	132	< 50	< 50	< 50	< 50	–	< 50	< 50	< 50	< 50
OC12CC3CC(CC(C3)N1Cc1cccc(F)c1)C2 (racemic)	< 50	862	< 50	< 50	705	< 50	< 50	< 50	< 50	< 50	< 50	< 50	< 50	< 50
